{"source": "paper PMC5218480", "about": "(PLoS ONE, 2017)", "system": "MV-4-11 cells", "assay": "Gene expression microarray analysis (Affymetrix PrimeView) and GSEA", "type": "cell-based, human", "set-up": "RFU PODN (11730768_x_at) / Fold change /veh PODN (11730768_x_at) / RFU LINC00158 (11744669_a_at) / Fold change /veh LINC00158 (11744669_a_at) / RFU DUSP10 (11751237_a_at) / Fold change /veh DUSP10 (11751237_a_at) / RFU ID3 (11757404_x_at) / Fold change /veh ID3 (11757404_x_at) / RFU PLEKHG5 (11737974_s_at) / Fold change /veh PLEKHG5 (11737974_s_at) / RFU LRRC4B (11730491_at) / Fold change /veh LRRC4B (11730491_at) / RFU GIMAP4 (11747438_a_at) / Fold change /veh GIMAP4 (11747438_a_at) / RFU KRT8 (11758183_x_at) / Fold change /veh KRT8 (11758183_x_at) / RFU CNN1 (11734310_a_at) / Fold change /veh CNN1 (11734310_a_at) / RFU VPS37D (11726825_at) / Fold change /veh VPS37D (11726825_at) / RFU C10orf10 (11716522_x_at) / Fold change /veh C10orf10 (11716522_x_at) / RFU KIR2DL2 /// KIR2DL4 /// KIR2DL5A /// KIR2DL5B /// KIR2DS1 /// KIR2DS2 /// KIR2DS3 /// KIR2DS4 /// KIR3DL3 /// KIR3DL3 /// KIR3DS1 (11738374_at) / Fold change /veh KIR2DL2 /// KIR2DL4 /// KIR2DL5A /// KIR2DL5B /// KIR2DS1 /// KIR2DS2 /// KIR2DS3 /// KIR2DS4 /// KIR3DL3 /// KIR3DL3 /// KIR3DS1 (11738374_at) / RFU C1QL1 (11718748_at) / Fold change /veh C1QL1 (11718748_at) / RFU TMPRSS4 (11747572_a_at) / Fold change /veh TMPRSS4 (11747572_a_at) / RFU HAMP (11756126_x_at) / Fold change /veh HAMP (11756126_x_at) / RFU RNFT2 (11725882_a_at) / Fold change /veh RNFT2 (11725882_a_at) / RFU NR4A2 (11747474_a_at) / Fold change /veh NR4A2 (11747474_a_at) / RFU ABCC12 (11746883_a_at) / Fold change /veh ABCC12 (11746883_a_at) / RFU TMEM136 (11760407_x_at) / Fold change /veh TMEM136 (11760407_x_at) / RFU CLDN22 /// WWC2 (11732394_at) / Fold change /veh CLDN22 /// WWC2 (11732394_at) / RFU HLA-DPB1 (11760878_x_at) / Fold change /veh HLA-DPB1 (11760878_x_at) / RFU SPINT1 (11716480_a_at) / Fold change /veh SPINT1 (11716480_a_at) / RFU GAP43 (11754022_s_at) / Fold change /veh GAP43 (11754022_s_at) / RFU A4GNT (11735810_at) / Fold change /veh A4GNT (11735810_at) / RFU PRB3 (11715151_x_at) / Fold change /veh PRB3 (11715151_x_at) / RFU TUBB4B (11761932_at) / Fold change /veh TUBB4B (11761932_at) / RFU CAPN14 (11732068_a_at) / Fold change /veh CAPN14 (11732068_a_at) / RFU TMCC2 (11721928_a_at) / Fold change /veh TMCC2 (11721928_a_at) / RFU IRGQ (11745062_a_at) / Fold change /veh IRGQ (11745062_a_at) / RFU FAM174B (11720279_a_at) / Fold change /veh FAM174B (11720279_a_at) / RFU TMPRSS4 (11748680_a_at) / Fold change /veh TMPRSS4 (11748680_a_at) / RFU FAM212B (11763350_a_at) / Fold change /veh FAM212B (11763350_a_at) / RFU PLEKHG5 (11743358_a_at) / Fold change /veh PLEKHG5 (11743358_a_at) / RFU ZSCAN30 (11745921_a_at) / Fold change /veh ZSCAN30 (11745921_a_at) / RFU CMKLR1 (11741424_a_at) / Fold change /veh CMKLR1 (11741424_a_at) / RFU LOC101060620 /// MAPK8IP1 (11723275_at) / Fold change /veh LOC101060620 /// MAPK8IP1 (11723275_at) / RFU SPTSSB (11747773_x_at) / Fold change /veh SPTSSB (11747773_x_at) / RFU PRSS12 (11739890_at) / Fold change /veh PRSS12 (11739890_at) / RFU BIN1 (11741810_x_at) / Fold change /veh BIN1 (11741810_x_at) / RFU WNT11 (11732464_a_at) / Fold change /veh WNT11 (11732464_a_at) / RFU C10orf10 (11716521_a_at) / Fold change /veh C10orf10 (11716521_a_at) / RFU C5orf56 (11738089_at) / Fold change /veh C5orf56 (11738089_at) / RFU CYB561 (11721691_x_at) / Fold change /veh CYB561 (11721691_x_at) / RFU ANKRD19P (11752326_a_at) / Fold change /veh ANKRD19P (11752326_a_at) / RFU OR2T12 /// OR2T33 /// OR2T8 (11738714_s_at) / Fold change /veh OR2T12 /// OR2T33 /// OR2T8 (11738714_s_at) / RFU VCAN (11748164_a_at) / Fold change /veh VCAN (11748164_a_at) / RFU JSRP1 (11732532_at) / Fold change /veh JSRP1 (11732532_at) / RFU KRTAP10-11 (11738290_x_at) / Fold change /veh KRTAP10-11 (11738290_x_at) / RFU MYO3A (11730013_a_at) / Fold change /veh MYO3A (11730013_a_at) / RFU EBF3 (11725865_a_at) / Fold change /veh EBF3 (11725865_a_at) / RFU CAMK2N1 (11719241_x_at) / Fold change /veh CAMK2N1 (11719241_x_at) / RFU C5orf56 (11738088_a_at) / Fold change /veh C5orf56 (11738088_a_at) / RFU OLFML3 (11715873_a_at) / Fold change /veh OLFML3 (11715873_a_at) / RFU LOC100653217 /// NTM (11731650_a_at) / Fold change /veh LOC100653217 /// NTM (11731650_a_at) / RFU MAPK11 (11762145_a_at) / Fold change /veh MAPK11 (11762145_a_at) / RFU FIZ1 (11724087_x_at) / Fold change /veh FIZ1 (11724087_x_at) / RFU OASL (11726364_x_at) / Fold change /veh OASL (11726364_x_at) / RFU SOX15 (11748057_x_at) / Fold change /veh SOX15 (11748057_x_at) / RFU CD79A (11719716_a_at) / Fold change /veh CD79A (11719716_a_at) / RFU HIST1H1D (11736915_at) / Fold change /veh HIST1H1D (11736915_at) / RFU CASKIN2 (11723855_a_at) / Fold change /veh CASKIN2 (11723855_a_at) / RFU LOC730098 (11760151_x_at) / Fold change /veh LOC730098 (11760151_x_at) / RFU OR4N2 (11742367_at) / Fold change /veh OR4N2 (11742367_at) / RFU PRRT2 (11749266_a_at) / Fold change /veh PRRT2 (11749266_a_at) / RFU SNX32 (11753110_a_at) / Fold change /veh SNX32 (11753110_a_at) / RFU CDHR5 (11726645_a_at) / Fold change /veh CDHR5 (11726645_a_at) / RFU RCAN1 (11760418_a_at) / Fold change /veh RCAN1 (11760418_a_at) / RFU FAM167A (11723789_a_at) / Fold change /veh FAM167A (11723789_a_at) / RFU FAM26E (11764081_at) / Fold change /veh FAM26E (11764081_at) / RFU ISYNA1 (11749810_s_at) / Fold change /veh ISYNA1 (11749810_s_at) / RFU ACY1 (11761880_at) / Fold change /veh ACY1 (11761880_at) / RFU 11764098_at / Fold change /veh 11764098_at / RFU SAMD14 (11745864_x_at) / Fold change /veh SAMD14 (11745864_x_at) / RFU NPB (11741838_a_at) / Fold change /veh NPB (11741838_a_at) / RFU TMPRSS6 (11731388_a_at) / Fold change /veh TMPRSS6 (11731388_a_at) / RFU KRTAP10-2 (11738614_at) / Fold change /veh KRTAP10-2 (11738614_at) / RFU ARHGAP8 /// PRR5-ARHGAP8 (11727945_x_at) / Fold change /veh ARHGAP8 /// PRR5-ARHGAP8 (11727945_x_at) / RFU KRTAP5-7 /// NADSYN1 (11734609_at) / Fold change /veh KRTAP5-7 /// NADSYN1 (11734609_at) / RFU RASL12 (11751679_a_at) / Fold change /veh RASL12 (11751679_a_at) / RFU CDKN2B (11736163_a_at) / Fold change /veh CDKN2B (11736163_a_at) / RFU PRF1 (11729649_at) / Fold change /veh PRF1 (11729649_at) / RFU, ZNF638 /// ZNF638-IT1 / Fold change vs veh, ZNF638 /// ZNF638-IT1 / RFU, PANK3 / Fold change vs veh, PANK3 / RFU, SH3YL1 / Fold change vs veh, SH3YL1 / RFU, ZEB2 / Fold change vs veh, ZEB2 / RFU, NRIP1 / Fold change vs veh, NRIP1 / RFU, PTTG1IP / Fold change vs veh, PTTG1IP / RFU, CAPN2 / Fold change vs veh, CAPN2 / RFU, MED14 / Fold change vs veh, MED14 / RFU, SNORA58 / Fold change vs veh, SNORA58 / RFU, C1orf63 / Fold change vs veh, C1orf63 / RFU, LRRFIP1 / Fold change vs veh, LRRFIP1 / RFU, NDUFAF7 / Fold change vs veh, NDUFAF7 / RFU, SLC12A2 / Fold change vs veh, SLC12A2 / RFU, IBTK / Fold change vs veh, IBTK / RFU, ESF1 / Fold change vs veh, ESF1 / Fold change vs veh, TMEM50B / RFU, TAOK1 / Fold change vs veh, TAOK1 / RFU, ACBD3 / Fold change vs veh, ACBD3 / RFU, TMA16 / Fold change vs veh, TMA16 / RFU, RWDD3 / Fold change vs veh, RWDD3 / RFU, BCAT1 / Fold change vs veh, BCAT1 / RFU, EDEM3 / Fold change vs veh, EDEM3 / RFU, TMEM33 / Fold change vs veh, TMEM33 / RFU, WDR75 / Fold change vs veh, WDR75 / RFU, AHCTF1 / Fold change vs veh, AHCTF1 / RFU, TFRC / Fold change vs veh, TFRC / RFU, ZDHHC17 / Fold change vs veh, ZDHHC17 / RFU, NOM1 / Fold change vs veh, NOM1 / RFU, ARL8B / Fold change vs veh, ARL8B / RFU, ZBTB11 / Fold change vs veh, ZBTB11 / RFU, TAMM41 / Fold change vs veh, TAMM41 / RFU, KIAA1704 /// LOC100996395 / Fold change vs veh, KIAA1704 /// LOC100996395 / RFU, ING1 / Fold change vs veh, ING1 / RFU, TRMT61B / Fold change vs veh, TRMT61B / RFU, FUBP3 / Fold change vs veh, FUBP3 / RFU, TP53 / Fold change vs veh, TP53 / RFU, TNKS2 / Fold change vs veh, TNKS2 / RFU, ZFP14 / Fold change vs veh, ZFP14 / RFU, ACTR2 / Fold change vs veh, ACTR2 / RFU, PPP3R1 / Fold change vs veh, PPP3R1 / RFU, PIK3R1 / Fold change vs veh, PIK3R1 / RFU, HNRNPA1 / Fold change vs veh, HNRNPA1 / RFU, RNF170 / Fold change vs veh, RNF170 / RFU, ZNF28 / Fold change vs veh, ZNF28 / RFU, RNGTT / Fold change vs veh, RNGTT / RFU, OGT / Fold change vs veh, OGT / RFU, BRD1 / Fold change vs veh, BRD1 / RFU, MARS / Fold change vs veh, MARS / RFU, ZNF655 / Fold change vs veh, ZNF655 / RFU, FAHD1 / Fold change vs veh, FAHD1 / RFU, BDP1 / Fold change vs veh, BDP1 / RFU, LRRCC1 / Fold change vs veh, LRRCC1 / RFU, ARID1A / Fold change vs veh, ARID1A / RFU, ZNF146 / Fold change vs veh, ZNF146 / RFU, ZNF330 / Fold change vs veh, ZNF330 / RFU, GPN3 / Fold change vs veh, GPN3 / RFU, C9orf123 / Fold change vs veh, C9orf123 / RFU, N4BP2L2 / Fold change vs veh, N4BP2L2 / RFU, ARFIP1 / Fold change vs veh, ARFIP1 / RFU, FAM179B / Fold change vs veh, FAM179B / RFU, BCL10 / Fold change vs veh, BCL10 / RFU, UHRF1BP1L / Fold change vs veh, UHRF1BP1L / RFU, BET1 / Fold change vs veh, BET1 / RFU, CNOT2 / Fold change vs veh, CNOT2 / RFU, ZNF268 / Fold change vs veh, ZNF268 / Fold change vs veh, ZNF507 / RFU, DGCR2 / Fold change vs veh, DGCR2 / RFU, WDSUB1 / Fold change vs veh, WDSUB1 / Fold change vs veh, HSP90B1 /// MIR3652 / RFU, ADSS / Fold change vs veh, ADSS / RFU, GK / Fold change vs veh, GK / RFU, ZNF148 / Fold change vs veh, ZNF148 / RFU, TAF9 / Fold change vs veh, TAF9 / RFU, SLC1A5 / Fold change vs veh, SLC1A5 / RFU, SLMO2 / Fold change vs veh, SLMO2 / RFU, ABCC4 / Fold change vs veh, ABCC4 / RFU, LOC101060439 /// RAP1B / Fold change vs veh, LOC101060439 /// RAP1B / RFU, RFX7 / Fold change vs veh, RFX7 / RFU, GTPBP10 / Fold change vs veh, GTPBP10 / RFU, CNEP1R1 / Fold change vs veh, CNEP1R1 / RFU, BIVM-ERCC5 /// ERCC5 / Fold change vs veh, BIVM-ERCC5 /// ERCC5 / RFU, ILF3 / Fold change vs veh, ILF3 / RFU 11762660_at / Fold change /veh 11762660_at / RFU VCAN (11757783_s_at) / Fold change /veh VCAN (11757783_s_at) / RFU DDX43 (11728927_at) / Fold change /veh DDX43 (11728927_at) / RFU KRT8 (11758188_x_at) / Fold change /veh KRT8 (11758188_x_at) / RFU NKD1 (11759106_at) / Fold change /veh NKD1 (11759106_at) / RFU SRD5A1 (11742802_a_at) / Fold change /veh SRD5A1 (11742802_a_at) / RFU TPSAB1 /// TPSB2 (11721975_s_at) / Fold change /veh TPSAB1 /// TPSB2 (11721975_s_at) / RFU GSTM3 (11746129_a_at) / Fold change /veh GSTM3 (11746129_a_at) / RFU IL23R (11737362_x_at) / Fold change /veh IL23R (11737362_x_at) / RFU TMEM51 (11727254_a_at) / Fold change /veh TMEM51 (11727254_a_at) / RFU PIWIL2 (11732686_x_at) / Fold change /veh PIWIL2 (11732686_x_at) / RFU ORM1 (11744905_x_at) / Fold change /veh ORM1 (11744905_x_at) / RFU CCDC152 (11743942_at) / Fold change /veh CCDC152 (11743942_at) / RFU ECM1 (11717891_a_at) / Fold change /veh ECM1 (11717891_a_at) / RFU IL23R (11748794_a_at) / Fold change /veh IL23R (11748794_a_at) / RFU TNFAIP8L3 (11732012_x_at) / Fold change /veh TNFAIP8L3 (11732012_x_at) / RFU MBOAT4 (11741988_at) / Fold change /veh MBOAT4 (11741988_at) / RFU 11764193_at / Fold change /veh 11764193_at / RFU TMEM53 (11763286_at) / Fold change /veh TMEM53 (11763286_at) / RFU MAGEB2 (11727129_at) / Fold change /veh MAGEB2 (11727129_at) / RFU TMEM200A (11744735_a_at) / Fold change /veh TMEM200A (11744735_a_at) / RFU CCDC152 (11751479_a_at) / Fold change /veh CCDC152 (11751479_a_at) / RFU FAM211A (11726209_a_at) / Fold change /veh FAM211A (11726209_a_at) / RFU RGS16 (11746705_a_at) / Fold change /veh RGS16 (11746705_a_at) / RFU VCAN (11755009_s_at) / Fold change /veh VCAN (11755009_s_at) / RFU RHOB (11743442_s_at) / Fold change /veh RHOB (11743442_s_at) / RFU RGS16 (11720943_a_at) / Fold change /veh RGS16 (11720943_a_at) / RFU RGS16 (11720944_at) / Fold change /veh RGS16 (11720944_at) / RFU, VPS4B / Fold change vs veh, VPS4B / RFU, CREB1 / Fold change vs veh, CREB1 / RFU, DNAJC13 / Fold change vs veh, DNAJC13 / RFU, GNAQ / Fold change vs veh, GNAQ / RFU, CDK5R1 / Fold change vs veh, CDK5R1 / RFU, ZRANB3 / Fold change vs veh, ZRANB3 / RFU, CUL4A / Fold change vs veh, CUL4A / RFU, CCNY / Fold change vs veh, CCNY / RFU, UFL1 / Fold change vs veh, UFL1 / RFU, COG3 / Fold change vs veh, COG3 / RFU, DIAPH2 / Fold change vs veh, DIAPH2 / RFU, SKA2 / Fold change vs veh, SKA2 / RFU, AFF3 / Fold change vs veh, AFF3 / RFU, LMF1 / Fold change vs veh, LMF1 / RFU, IPO11 / Fold change vs veh, IPO11 / RFU, DFFB / Fold change vs veh, DFFB / RFU, FOXP1 / Fold change vs veh, FOXP1 / RFU, CARD8 / Fold change vs veh, CARD8 / RFU, STRN3 / Fold change vs veh, STRN3 / RFU, ADK / Fold change vs veh, ADK / RFU, RASSF2 / Fold change vs veh, RASSF2 / RFU, WIPF1 / Fold change vs veh, WIPF1 / RFU, LARP1B / Fold change vs veh, LARP1B / RFU, RASA1 / Fold change vs veh, RASA1 / RFU, RB1 / Fold change vs veh, RB1 / RFU, PPFIA1 / Fold change vs veh, PPFIA1 / RFU, MAT2A / Fold change vs veh, MAT2A / RFU, CCT5 / Fold change vs veh, CCT5 / RFU, WDR92 / Fold change vs veh, WDR92 / RFU, CUX1 / Fold change vs veh, CUX1 / RFU, TTC7A / Fold change vs veh, TTC7A / RFU, TMEM135 / Fold change vs veh, TMEM135 / RFU, DEPTOR / Fold change vs veh, DEPTOR / RFU, CPM / Fold change vs veh, CPM / RFU, DNAJB6 / Fold change vs veh, DNAJB6 / RFU, CACNA2D3 / Fold change vs veh, CACNA2D3 / RFU, DTX4 / Fold change vs veh, DTX4 / RFU, TFCP2 / Fold change vs veh, TFCP2 / RFU, GMCL1 /// GMCL1P1 / Fold change vs veh, GMCL1 /// GMCL1P1 / RFU, AEBP2 / Fold change vs veh, AEBP2 / RFU, SNHG1 /// SNORD22 /// SNORD25 /// SNORD26 /// SNORD27 /// SNORD28 /// SNORD29 /// SNORD31 / Fold change vs veh, SNHG1 /// SNORD22 /// SNORD25 /// SNORD26 /// SNORD27 /// SNORD28 /// SNORD29 /// SNORD31 / Fold change (Aza/veh), C12orf56 (ProbeSet 11735607_a_at) / Fold change (ACY-1035/veh), C12orf56 (ProbeSet 11735607_a_at) / Fold change (Aza/veh), FGFR1OP (ProbeSet 11751329_s_at) / Fold change (ACY-1035/veh), FGFR1OP (ProbeSet 11751329_s_at) / Fold change (Aza/veh), VPS36 (ProbeSet 11739960_a_at) / Fold change (ACY-1035/veh), VPS36 (ProbeSet 11739960_a_at) / RFU SYPL1 (11715823_x_at) / Fold change /veh SYPL1 (11715823_x_at) / RFU IGFBP7 (11715501_s_at) / Fold change /veh IGFBP7 (11715501_s_at) / RFU REEP3 (11722064_at) / Fold change /veh REEP3 (11722064_at) / RFU IGLL1 (11728026_x_at) / Fold change /veh IGLL1 (11728026_x_at): dose or concentration left out as unconfirmed", "details": "MV-4-11 cells, 48 hours"}
{"compound": "Nc1ccc(-c2cccs2)cc1NC(=O)c1ccc2c(c1)cc(C1CC1)n2CCN1CCOCC1", "note": "[ACY-1035]", "values": [{"measurement": "RFU DDX43 (11728927_at)", "result": 10.07, "unit": "RFU"}]}
